Source: patent US12157730B2, “Heteroaryl derivative, method for producing same, and pharmaceutical composition comprising same as effective component” (VORONOI INC., priority 2019, dated 2024)

Biological target: T1, Ba/F3 cell EGFR Exon20 ins NPH (Homo sapiens, UniProt P00533, INS773NPH)
T1 construct: expressed in transfected cells; host or cells: Ba/F3
Assay: Ba/F3 cell proliferation suppression, EGFR Exon20 ins NPH
Assay type: cell-based
Conditions: GI50 class; Ba/F3 cell line with NPH inserted at Exon20 of EGFR; 72 hours
Experimental: The following experiment was carried out to evaluate the suppression activity of the compounds according to the present invention against proliferation of Ba/F3 and lung cancer cells which express EGFR mutations.
Of the cancer cell lines expressing the EGFR gene, A549 was cultured after adding 10% FBS (HyClone) to DMEM (Invitrogen), and RPMI-1640 (Invitrogen) with 10% FBS was used for the other cancer cells. For the Ba/F3 cells, RPMI-1640 with 10% FBS and 5 ng/ml IL-3 (R&D Systems) was used. The transduced Ba/F3 cells were cultured by adding 1 ug/ml puromycin (Invitrogen) to the same medium.
24 hours before treatment with the compounds, 3000 to 5000 cells were distributed into each well of a white clear bottom 96 well plate (Corning). The compounds were diluted in dimethylsulfoxide (dilution ratio 3:1; 12 concentrations total) and injected 0.5 ul each for a final concentration of 0.3 nM to 50 um. As for measurement of live cells, 72 hours after treatment with the compounds, a CellTiter-Glo luminescent cell-viability reagent (Promega) was used to store the cells at room temperature for 10 minutes, followed by measurement of luminescence using a reader (SynergyNeo, Biotek). Each test was repeated three times.
The result was calculated as a cell growth ratio (%) compared to a control. The program GraphPad Prism version 5.0 was used to draw the graphs and calculate the GI50 values.

Ba/F3 (NPH) Activity | Compound
A (GI50 < 50 nM) | C=CC(=O)Nc1cc(Nc2cc(N3OCC[C@@H]3c3cccc(F)c3)ncn2)c(OC)cc1N1CCC(N2CCN(C3COC3)CC2)CC1 [Example 80, N-(5-((6-((R)-3-(3-fluorophenyl)isoxazolidine-2-yl)pyrimidine-4-yl)amino)-4-methoxy-2-(4-(4-(oxetane-3-yl)piperazine-1-yl)piperidine-1-yl)phenyl) acrylamide]
A (GI50 < 50 nM) | C=CC(=O)Nc1cc(Nc2cc(N3OCC[C@@H]3c3ccc(F)cc3F)ncn2)c(OC)cc1N1CCC(N2CCN(C)CC2)CC1 [compound 352, N-(5-((6-((R)-3-(2,4-difluorophenyl)isoxazolidine-2-yl)pyrimidine-4-yl)amino)-4-methoxy-2-(4-(4-methylpiperazine-1-yl)piperidine-1-yl)phenyl) acrylamide]
B (50 nM ≤ GI50 < 500 nM) | C=CC(=O)Nc1cc(Nc2cc(N3OCC[C@@H]3c3ccc4ccccc4c3)ncn2)c(OC)cc1N1CCC(N2CCN(C(C)=O)CC2)CC1 [compound 556, N-(2-(4-(4-acetylpiperazine-1-yl)piperidine-1-yl)-4-methoxy-5-((6-((R)-3-(naphthalene-2-yl)isoxazolidine-2-yl)pyrimidine-4-yl)amino)phenyl) acrylamide]
A (GI50 < 50 nM) | C=CC(=O)Nc1cc(Nc2cc(N3OCC[C@@H]3c3cccc(C#N)c3)ncn2)c(OC)cc1N1C[C@H]2CCN(C)[C@H]2C1 [compound 331, N-(5-((6-((R)-3-(3-cyanophenyl)isoxazolidine-2-yl)pyrimidine-4-yl)amino)-4-methoxy-2-((3aR, 6aR)-1-methylhexahydropyrrolo [3,4-b]pyrrole-5(1H)-yl)phenyl)acrylamide]
A (GI50 < 50 nM) | C=CC(=O)Nc1cc(Nc2cc(N3OCC[C@@H]3c3cccc(Cl)c3)ncn2)c(OC)cc1N1CCC(N2C[C@@H](C)O[C@@H](C)C2)CC1 [compound 415, N-(5-((6-((R)-3-(3-chlorophenyl)isoxazolidine-2-yl)pyrimidine-4-yl)amino)-2-(4-((2S,6R)-2,6-dimethylmorpholino)piperidine-1-yl)-4-methoxyphenyl) acrylamide]
B (50 nM ≤ GI50 < 500 nM) | C=CC(=O)Nc1cc(Nc2cc(N3OCC[C@@H]3c3ccccc3)ncn2)c(OC)cc1N1CCC(N2CCN(CCN(C)C)CC2)CC1 [compound 739, N-(2-(4-(4-(2-(dimethylamino)ethyl)piperazine-1-yl)piperidine-1-yl)-4-methoxy-5-((6-((R)-3-phenylisoxazolidine-2-yl)pyrimidine-4-yl)amino)phenyl) acrylamide]
A (GI50 < 50 nM) | C=CC(=O)Nc1cc(Nc2cc(N3OCC[C@@H]3c3cccc(C)c3F)ncn2)c(OC)cc1N1CCC(N2CC[C@@H](N(C)C)C2)CC1 [compound 418, N-(2-(4-((R)-3-(dimethylamino)pyrolidine-1-yl)piperidine-1-yl)-5-((6-((R)-3-(2-fluoro-3-methylphenyl)isoxazolidine-2-yl)pyrimidine-4-yl)amino)-4-methoxyphenyl) acrylamide]
A (GI50 < 50 nM) | C=CC(=O)Nc1cc(Nc2cc(N3OCC[C@@H]3c3ccc(F)c(F)c3)ncn2)c(OC)cc1N1CCC(N2CCN(CCC)CC2)CC1 [compound 547, N-(5-((6-((R)-3-(3,4-difluorophenyl)isoxazolidine-2-yl)pyrimidine-4-yl)amino)-4-methoxy-2-(4-(4-propylpiperazine-1-yl)piperidine-1-yl)phenyl) acrylamide]
A (GI50 < 50 nM) | C=CC(=O)Nc1cc(Nc2cc(N3OCC[C@@H]3c3cc(F)cc(F)c3)ncn2)c(OC)cc1N1CCN(C)[C@@H](C)C1 [compound 916, N-(5-((6-((R)-3-(3,5-difluorophenyl)isoxazolidine-2-yl)pyrimidine-4-yl)amino)-2-((S)-3,4-dimethylpiperazine-1-yl)-4-methoxyphenyl) acrylamide]
A (GI50 < 50 nM) | C=CC(=O)Nc1cc(Nc2cc(N3OCC[C@@H]3c3cc(F)ccc3F)ncn2)c(OC)cc1N1CCC(N2C[C@@H]3C[C@H]2CO3)CC1 [compound 826, N-(2-(4-((1S,4S)-2-oxa-5-azabicyclo [2.2.1]heptane-5-yl)piperidine-1-yl)-5-((6-((R)-3-(2,5-difluorophenyl)isoxazolidine-2-yl)pyrimidine-4-yl)amino)-4-methoxyphenyl) acrylamide]
C (500 nM ≤ GI50 < 5000 nM) | C=CCN1CCN(C2CCN(c3cc(OC)c(Nc4cc(N5OCC[C@@H]5c5cccc(OC)c5)ncn4)cc3NC(=O)C=C)CC2)CC1 [Example 215, N-(2-(4-(4-allylpiperazine-1-yl)piperidine-1-yl)-4-methoxy-5-((6-((R)-3-(3-methoxyphenyl)isoxazolidine-2-yl)pyrimidine-4-yl)amino)phenyl) acrylamide]
A (GI50 < 50 nM) | C=CC(=O)Nc1cc(Nc2cc(N3OCC[C@@H]3c3ccccc3)ncn2)c(OC)cc1N1CCC(N2CCN(CC)CC2)CC1 [Example 55, N-(2-(4-(4-ethylpiperazine-1-yl)piperidine-1-yl)-4-methoxy-5-((6-((R)-3-phenylisoxazolidine-2-yl)pyrimidine-4-yl)amino)phenyl) acrylamide]
A (GI50 < 50 nM) | C=CC(=O)Nc1cc(Nc2cc(N3OCC[C@@H]3c3ccc(F)c(F)c3F)ncn2)c(OC)cc1N1CCC(N2C[C@@H](C)O[C@@H](C)C2)CC1 [compound 576, N-(2-(4-((2S,6R)-2,6-dimethylmorpholino)piperidine-1-yl)-4-methoxy-5-((6-((R)-3-(2,3,4-trifluorophenyl)isoxazolidine-2-yl)pyrimidine-4-yl)amino)phenyl)acrylamide]
A (GI50 < 50 nM) | C=CC(=O)Nc1cc(Nc2cc(N3OCC[C@@H]3c3cccs3)ncn2)c(OC)cc1N1CCN(C)CC1 [compound 929, N-(4-methoxy-2-(4-methylpiperazine-1-yl)-5-((6-((R)-3-(thiophene-2-yl)isoxazolidine-2-yl)pyrimidine-4-yl)amino)phenyl)acrylamide]
A (GI50 < 50 nM) | C=CC(=O)Nc1cc(Nc2cc(N3OCC[C@@H]3c3cc(F)cc(F)c3)ncn2)c(OC)cc1N1CCC(N2CCN3CCCC3C2)CC1 (stereo partly drawn) [compound 852, N-(5-((6-((R)-3-(3,5-difluorophenyl)isoxazolidine-2-yl)pyrimidine-4-yl)amino)-2-(4-(hexahydropyrrolo [1,2-a]pyrazine-2(1H)-yl)piperidine-1-yl)-4-methoxyphenyl) acrylamide]
B (50 nM ≤ GI50 < 500 nM) | C=CC(=O)Nc1cc(Nc2cc(N3OCC[C@@H]3c3cccc(C#N)c3)ncn2)c(OC)cc1N1CCC(N2CCN(C3CC3)C[C@@H]2C)CC1 [Example 132, N-(5-((6-((R)-3-(3-cyanophenyl)isoxazolidine-2-yl)pyrimidine-4-yl)amino)-2-(4-((S)-4-cyclopropyl-2-methylpiperazine-1-yl)piperidine-1-yl)-4-methoxyphenyl) acrylamide]

Compound | Ba/F3 (NPH) Activity
N-(2-(4-(4- (cyclopropylmethyl) piperazine-1-yl) piperidine-1-yl)-5-((6- ((S)-3-(2,6)- difluorophenyl) isoxazolidine-2-yl) pyrimidine-4-yl)amino)- 4-methoxyphenyl) acrylamide [Example 95] | C (500 nM ≤ GI50 < 5000 nM)
